Laboratory results from article PMC3556037, “Stimulation of Inositol 1,4,5-Trisphosphate (IP3) Receptor Subtypes by Analogues of IP3” (PLoS ONE, 2013).
Like-named read-outs stand apart in the source and are kept apart here.

Tests used:
Experiment in all cases: Ca2+ release from ER of permeabilized DT40 cells, luminal Mag fluo-4
[1] = molecular target: T1, IP3R3 (Rattus norvegicus, UniProt Q63269); type: cell-based
T1 construct: gene Itpr3; full-length, homotetramer, stably expressed in DT40 cells lacking all endogenous IP3R; saponin-permeabilized cells
From the text: (§1) Ca2+ release from ER of permeabilized DT40 cells, luminal Mag fluo-4 on IP3R3

[2] = molecular target: T2, IP3R2 (Mus musculus, UniProt Q9Z329); type: cell-based
T2 construct: gene Itpr2; full-length, homotetramer, stably expressed in DT40 cells lacking all endogenous IP3R; saponin-permeabilized cells
T2 sequence (Q9Z329 whole entry): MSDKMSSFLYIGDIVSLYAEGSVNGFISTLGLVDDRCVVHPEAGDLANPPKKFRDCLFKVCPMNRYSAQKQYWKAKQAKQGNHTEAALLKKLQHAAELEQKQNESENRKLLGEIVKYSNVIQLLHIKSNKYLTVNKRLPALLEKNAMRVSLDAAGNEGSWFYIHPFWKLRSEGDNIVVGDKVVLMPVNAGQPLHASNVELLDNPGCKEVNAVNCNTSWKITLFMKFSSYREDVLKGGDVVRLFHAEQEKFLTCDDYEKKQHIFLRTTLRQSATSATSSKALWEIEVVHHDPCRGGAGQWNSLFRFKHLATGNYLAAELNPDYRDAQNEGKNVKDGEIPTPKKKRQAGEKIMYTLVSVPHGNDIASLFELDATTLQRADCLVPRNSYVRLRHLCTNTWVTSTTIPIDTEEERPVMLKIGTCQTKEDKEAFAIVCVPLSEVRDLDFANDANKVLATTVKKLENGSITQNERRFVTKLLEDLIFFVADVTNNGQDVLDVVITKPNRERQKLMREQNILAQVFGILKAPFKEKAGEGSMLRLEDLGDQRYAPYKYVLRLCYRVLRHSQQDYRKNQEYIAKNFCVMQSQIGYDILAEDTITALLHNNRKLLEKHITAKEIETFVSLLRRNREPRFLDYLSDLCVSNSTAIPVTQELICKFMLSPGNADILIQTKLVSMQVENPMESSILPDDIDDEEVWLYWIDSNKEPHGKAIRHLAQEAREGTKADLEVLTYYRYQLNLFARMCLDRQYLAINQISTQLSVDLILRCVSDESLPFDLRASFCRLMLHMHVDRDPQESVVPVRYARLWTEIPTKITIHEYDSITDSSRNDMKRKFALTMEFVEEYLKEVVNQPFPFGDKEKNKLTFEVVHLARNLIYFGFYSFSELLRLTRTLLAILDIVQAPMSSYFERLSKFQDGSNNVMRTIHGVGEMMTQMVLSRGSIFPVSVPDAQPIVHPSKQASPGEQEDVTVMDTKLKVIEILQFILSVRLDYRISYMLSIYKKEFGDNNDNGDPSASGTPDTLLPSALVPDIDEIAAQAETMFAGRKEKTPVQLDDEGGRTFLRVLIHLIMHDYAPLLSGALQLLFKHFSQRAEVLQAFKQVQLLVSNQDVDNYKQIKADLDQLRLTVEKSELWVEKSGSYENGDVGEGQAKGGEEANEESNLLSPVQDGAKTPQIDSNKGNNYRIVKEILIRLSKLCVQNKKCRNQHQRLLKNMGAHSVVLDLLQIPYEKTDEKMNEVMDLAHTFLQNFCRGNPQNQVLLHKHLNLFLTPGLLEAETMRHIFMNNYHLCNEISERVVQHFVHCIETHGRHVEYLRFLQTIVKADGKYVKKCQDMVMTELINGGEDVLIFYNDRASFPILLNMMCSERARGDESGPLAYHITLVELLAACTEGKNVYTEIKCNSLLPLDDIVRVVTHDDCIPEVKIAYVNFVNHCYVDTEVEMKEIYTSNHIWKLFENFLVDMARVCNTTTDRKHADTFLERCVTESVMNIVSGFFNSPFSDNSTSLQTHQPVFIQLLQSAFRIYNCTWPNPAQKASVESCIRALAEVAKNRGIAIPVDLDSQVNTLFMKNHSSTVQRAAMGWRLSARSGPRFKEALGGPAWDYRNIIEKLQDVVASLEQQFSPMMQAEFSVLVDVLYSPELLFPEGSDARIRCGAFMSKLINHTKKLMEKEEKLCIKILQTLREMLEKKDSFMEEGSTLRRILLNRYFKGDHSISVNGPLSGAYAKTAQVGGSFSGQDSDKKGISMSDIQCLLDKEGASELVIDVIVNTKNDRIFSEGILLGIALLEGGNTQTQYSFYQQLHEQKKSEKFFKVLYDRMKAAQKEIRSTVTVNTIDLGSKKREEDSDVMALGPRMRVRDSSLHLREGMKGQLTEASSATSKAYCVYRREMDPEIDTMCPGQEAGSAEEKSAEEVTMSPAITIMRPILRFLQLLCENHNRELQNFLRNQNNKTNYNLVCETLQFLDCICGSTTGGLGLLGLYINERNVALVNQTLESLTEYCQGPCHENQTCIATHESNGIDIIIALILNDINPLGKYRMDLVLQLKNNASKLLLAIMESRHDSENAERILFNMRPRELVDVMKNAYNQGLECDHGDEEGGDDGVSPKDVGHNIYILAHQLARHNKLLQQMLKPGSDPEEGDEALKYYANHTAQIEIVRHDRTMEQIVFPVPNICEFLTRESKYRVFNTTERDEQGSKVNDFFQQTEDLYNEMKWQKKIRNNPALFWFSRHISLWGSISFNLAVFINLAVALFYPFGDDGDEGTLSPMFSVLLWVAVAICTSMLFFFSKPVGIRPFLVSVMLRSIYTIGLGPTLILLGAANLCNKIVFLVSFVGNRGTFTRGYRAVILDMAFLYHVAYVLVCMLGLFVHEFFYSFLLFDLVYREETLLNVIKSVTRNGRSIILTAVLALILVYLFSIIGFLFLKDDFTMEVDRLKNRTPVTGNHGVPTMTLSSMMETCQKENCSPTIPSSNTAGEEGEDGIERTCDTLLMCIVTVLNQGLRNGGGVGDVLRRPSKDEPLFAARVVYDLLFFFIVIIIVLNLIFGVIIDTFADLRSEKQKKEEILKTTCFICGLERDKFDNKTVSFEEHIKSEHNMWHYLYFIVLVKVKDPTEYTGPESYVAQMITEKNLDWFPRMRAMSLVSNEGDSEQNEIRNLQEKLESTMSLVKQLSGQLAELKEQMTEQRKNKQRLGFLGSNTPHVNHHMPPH
From the text: Ca2+ release from ER of permeabilized DT40 cells, luminal Mag fluo-4 on IP3R2

[3] = molecular target: T1, IP3R3; type: biochemical
From the text: as §1

[4] = 100 µM, 1.5 mM MgATP, free Ca2+ ~220 nM, pH 7, 20 °C, thapsigargin 1 µM, unreliable: paper suspects minor contamination by active IP3

SMILES: O=P(O)(O)O[C@@H]1[C@H](O)[C@H](O)[C@@H](OP(=O)(O)O)[C@H](OP(=O)(O)O)[C@H]1O [(1,4,5)IP3]
- EC50 [1]: 0.417 µM
- EC50 [2]: 0.145 µM

SMILES: O=P(O)(O)O[C@@H]1[C@@H](O)[C@@H](O)[C@@H](OP(=O)(O)O)[C@H](OP(=O)(O)O)[C@H]1O [(1,4,6)IP3]
- EC50 [1]: 15.8 µM
- EC50 [2]: 12.6 µM

SMILES: O=P(O)(O)O[C@@H]1[C@@H](O)[C@H](OP(=O)(O)O)[C@H](O)C[C@H]1OP(=O)(O)O [3-deoxy(1,4,5)IP3]
- EC50 [3]: 15.8 µM
- EC50 [2]: 5.89 µM

SMILES: O=P(O)(O)O[C@@H]1[C@@H](O)[C@H](O)[C@H](O)[C@H](O)[C@H]1OP(=O)(O)O [(4,5)IP2]
- EC50 [1]: 11.5 µM
- EC50 [2]: 6.31 µM

SMILES: O=P(O)(O)O[C@H]1[C@H](O)[C@@H](O)[C@H](OP(=O)(O)O)[C@@H](OP(=O)(O)O)[C@H]1O [(1,3,4)IP3]
- IP3R3 / Ca^2+release (%) [1, 4]: 2±1%
- IP3R2 / Ca^2+release (%) [2, 4]: 18±6%

SMILES: O=P(O)(O)O[C@@H]1[C@@H](O)[C@H](OP(=O)(O)O)C[C@H](O)[C@H]1OP(=O)(O)O [2-deoxy(1,4,5)IP3]
- EC50 [1]: 0.324 µM
- EC50 [2]: 0.115 µM

SMILES: CN(C)c1ccc(C(=C2C=CC(=[N+](C)C)C=C2)c2ccc(C(=O)NCCCOP(=O)(O)O[C@@H]3[C@H](O)[C@H](O)[C@@H](OP(=O)(O)O)[C@H](OP(=O)(O)O)[C@H]3O)cc2)cc1 [MG(1,4,5)IP3]
- EC50 [3]: 1.74 µM
- EC50 [2]: 0.708 µM
